{"source": "paper PMC10820135", "about": "“Pharmacokinetic, Tissue Distribution, Metabolite, and Toxicity Evaluation of the Matrine Derivative, (6aS, 10S, 11aR, 11bR, 11cS)-10-Methylaminododecahydro-3a, 7a-Diaza-benzo (de) Anthracene-8-thione” (Molecules, 2024)", "key": {"[1]": {"test": "Acute toxicity of MASM in mice via intravenous administration", "format": "in vivo", "settings": "ICR, mouse, in vivo, iv, mice, intravenous", "protocol": "All mice were administered MASM intravenously. The body weight of each mouse was measured on days 7 and 14. On the 14th day, all mice were euthanized, and the heart, liver, spleen, lung, and kidney were collected and weighed immediately. Serum was collected from the eyeballs for further biochemical analysis, and a small portion of each tissue and organ was fixed in 4% […] solution for histopathological examination. Bar graphs were generated applying Prism 8.0 (GraphPad Software Inc., San Diego, CA, USA), and HE staining samples were captured using the Leica image system."}, "[2]": {"test": "Tissue distribution of MASM in rats", "format": "in vivo, Sprague-Dawley rats", "settings": "rat", "protocol": "(§1) UHPLC analysis was performed using a Thermo Accela AS system, employing an ACQUITY UPLC®BEH C18 (Waters Corporation, Wexfords, Ireland) (1.7 µm, 2.1 × 100 mm) column and a binary solvent system consisting of water containing 0.1% formic acid as mobile phase A and acetonitrile as mobile phase B. For pharmacokinetic evaluation, the gradient elution was set as follows: 97% A from 0 to 2 min, 97–70% A from 2 to 3 min, 70–20% A from 3 to 3.5 min, 20% A from 3.5 to 3.6 min, 20–97% A from 3.6 to 3.7 min, and 97% A from 3.7 to 5 min. For the metabolic test, the gradient elution in full scan mode was set as follows: 97% A from 0 to 2 min, 97–70% A from 2 to 4 min, 70–20% A from 4 to 6 min, 20% A from 6 to 7 min, 20–97% A from 7 to 8 min, and 97% A from 8 to 10 min. The flow rate was 0.2 mL/min, with a temperature of 40 °C maintained and an injection volume of 5 μL. The QQQ-MS/MS analysis was conducted using a Thermo TSQ QUANTUM ACCESS MAX system equipped with an electrospray ionization (ESI) source. The spray voltages were set at 4.0 kV and 2.5 kV for positive and negative ion modes, respectively; capillary and vaporizer temperatures were 320 °C and 350 °C, respectively; sheath and aux gas pressures were 35 and 10 psi, respectively.\nA total of 36 Sprague-Dawley rats (18 male and 18 female) were randomly and equally assigned to 6 groups, with 3 male and 3 female rats in each group. Among these groups, 3 groups were administrated MASM intragastrically at a dosage of 60 mg/kg, while the remaining 3 groups received intraperitoneal administration of MASM at a dosage of 80 mg/kg. The rats in each group were euthanized at three different time points: 1 h, 2 h, and 24 h after administration. Subsequently, various tissues, including the heart, liver, spleen, lung, kidney, stomach, muscle, and brain, were promptly collected and weighed. These tissues were then homogenized using acetonitrile at a ratio of 1:10 and stored at a temperature of −80 °C until further analysis. During the analysis of the tissue sample, the protein was precipitated following the tissues: acetonitrile with a ratio of 1:3 and a volume of 5μL of the resulting supernatant were injected. The UHPLC-QQQ-MS/MS analysis method that was developed, underwent a comprehensive validation process, and the concentration of MASM in each tissue was determined using linear regression equations. Bar graphs were generated by applying Prism 8.0 (GraphPad Software Inc., San Diego, CA, USA)."}, "[3]": {"test": "Plasma pharmacokinetics of MASM in rats, non-compartmental analysis", "format": "in vivo, Sprague-Dawley rats", "settings": "rat", "protocol": "as §1\nA precisely measured MASM sample weighing 400 mg was dissolved in normal saline to create aqueous solutions with concentrations of 8.0, 6.0, and 1.5 mg/mL for intraperitoneal, oral, and intravenous administrations at doses of 80 mg/kg, 60 mg/kg, and 15 mg/kg, respectively.\nSeventy Sprague-Dawley rats were fasted overnight before dosing, with free access to water. Subsequently, the rats were randomly and equally divided into 7 groups: the control groups received 3 different routes of administration: intravenous, intraperitoneal, and intragastric (NS, saline 1 mL/100 g); MASM intraperitoneal group (A, i.p. 80 mg/kg), MASM intragastrical group (B, i.g. 60 mg/kg), MASM intravenous group (C, i.v. 15 mg/kg), and DMASM intragastrical group (D, i.g. 60 mg/kg). It is important to note that the recommended clinical dose of matrine injection is 0.15 g, which is equivalent to a dosage of 15 mg/kg in rats. MASM was administered via tail vein injection at a dosage of 1 mL/100 g for intravenous dosing, while for intraperitoneal dosing, MASM was injected at the lower-right side of the abdomen of rats. Blood samples (approximately 0.3 mL) were collected from the eye socket at specific time intervals (0.083, 0.167, 0.25, 0.5, 1, 1.5, 2, 4, 6, 9, 12, and 24 h) after administration for each group. These samples were then placed in centrifuge tubes containing heparin sodium, subjected to centrifugation at 4000 rpm for 15 min, and the resulting supernatant was collected and stored at −80 °C until further analysis. During the analysis of the plasma sample, protein precipitation was carried out using a plasma-to-acetonitrile ratio of 1:3, and 5μL of the resulting supernatant was injected. The developed UHPLC-QQQ-MS/MS analysis method underwent a series of validations, and the peak area of the plasma sample was obtained employing the Xcalibur 2.2 data-processing system. The concentrations of MASM in plasma were then determined using linear regression equations. Subsequently, the in vivo pharmacokinetic parameters were calculated using the non-compartment model in DAS 3.0 software. Blood concentration–time curves were generated using Prism 8.0 (GraphPad Software Inc., San Diego, CA, USA)."}, "[4]": {"settings": "Sprague-Dawley, plasma, iv, i.v. 15 mg/kg, n = 6, mean ± SD"}, "[5]": {"settings": "i.g. 60 mg/kg, n = 6, mean ± SD"}, "[6]": {"settings": "i.p. 80 mg/kg, n = 6, mean ± SD"}}, "note": "“Also recorded” adds a separate entry of the source. Where two headings read alike, the source gives them in different places."}
{"smiles": "CNC1CC(=S)N2CC3CCCN4CCCC(C34)C2C1", "note": "[MASM, (6aS, 10S, 11aR, 11bR, 11cS)-10-methylaminododecahydro-3a, 7a-diaza-benzo (de) anthracene-8-thione]", "values": [{"measurement": "LD50 at 14 day", "setting": "[1]; 14-day observation, read-out: LD50", "value": 94.2, "unit": "mg/kg"}, {"measurement": "LD50 at 14 day", "setting": "[1]; read-out: LD50, 95% confidence interval", "value": "70.8 to 129", "unit": "mg/kg"}, {"measurement": "tissues with concentration surpassing other organs at 1 h", "setting": "[2]; following the initial hour", "value": "liver, kidney, and intestine"}, {"measurement": "time at which Cmax in liver tissue was achieved", "setting": "[2]; i.g. 60 mg/kg and i.p. 80 mg/kg", "value": "≤ 1", "unit": "h"}, {"measurement": "tissue with higher concentration than other organs at 2 h and 24 h", "setting": "[2]; i.g. 60 mg/kg or i.p. 80 mg/kg", "value": "spleen and intestine"}, {"measurement": "tissues of main distribution / higher accumulation", "setting": "[2]; i.g. 60 mg/kg or i.p. 80 mg/kg, 1, 2, 24 h", "value": "primarily distributed in the liver, kidney, and spleen tissues"}, {"measurement": "detection in tissues", "setting": "[2]; heart, liver, spleen, lung, kidney, brain, muscle, intestine, stomach", "value": "detected in all rat tissues including the brain; also recorded: detected in various tissues at 1, 2, and 24 h after administration"}, {"measurement": "bioavailability", "setting": "[3]; Sprague-Dawley, plasma, intraperitoneal, i.p. 80 mg/kg vs i.v. 15 mg/kg, n = 6, mean ± SD, read-out: F(%) bioavailability", "value": "54 ± 19.4", "unit": "%"}, {"measurement": "Cmax", "setting": "[3]; Sprague-Dawley, plasma, ip, i.p. 80 mg/kg, n = 6, mean ± SD", "value": "2210 ± 930", "unit": "ng/mL"}, {"measurement": "half-life", "setting": "[3]; Sprague-Dawley, plasma, ip, i.p. 80 mg/kg, n = 6, mean ± SD, read-out: t 1/2 (elimination half-life) (converted)", "value": "9.97 ± 3.95", "unit": "h"}, {"measurement": "Cmax", "setting": "[3]; [4]", "value": "780 ± 540", "unit": "ng/mL"}, {"measurement": "clearance", "setting": "[3]; [4]", "value": 71.7, "unit": "mL/min/kg"}, {"measurement": "Vd", "setting": "[3]; Sprague-Dawley, plasma, iv, i.v. 15 mg/kg, n = 6, mean ± SD, read-out: V d (apparent volume of distribution)", "value": "36.6 ± 17.8", "unit": "L/kg"}, {"measurement": "half-life", "setting": "[3]; Sprague-Dawley, plasma, iv, i.v. 15 mg/kg, n = 6, mean ± SD, read-out: t 1/2 (elimination half-life) (converted)", "value": "10.5 ± 8.84", "unit": "h"}, {"measurement": "bioavailability", "setting": "[3]; Sprague-Dawley, plasma, oral, i.g. 60 mg/kg vs i.v. 15 mg/kg, n = 6, mean ± SD, read-out: F(%) absolute intragastrical bioavailability", "value": "44.5 ± 12.3", "unit": "%"}, {"measurement": "half-life", "setting": "[3]; Sprague-Dawley, plasma, other: intravenous, intravenous, intraperitoneal or intragastric, read-out: t1/2 regardless of the route of administration (converted)", "value": "~10", "unit": "h"}, {"measurement": "Cmax", "setting": "[3]; Sprague-Dawley, plasma, po, i.g. 60 mg/kg, n = 6, mean ± SD", "value": "1380 ± 570", "unit": "ng/mL"}, {"measurement": "half-life", "setting": "[3]; Sprague-Dawley, plasma, po, i.g. 60 mg/kg, n = 6, mean ± SD, read-out: t 1/2 (elimination half-life) (converted)", "value": "10.2 ± 4.95", "unit": "h"}, {"measurement": "Tmax", "setting": "[3]; Sprague-Dawley, plasma, ip, 80 mg/kg, i.p. 80 mg/kg, n = 6, mean ± SD", "value": "0.21 ± 0.04", "unit": "h"}, {"measurement": "AUC(0-t)", "setting": "[3]; Sprague-Dawley, plasma, ip, 80 mg/kg, i.p. 80 mg/kg, n = 6, mean ± SD, read-out: AUC(0–24)", "value": "15600 ± 5610", "unit": "ng·h/mL"}, {"measurement": "AUC(0-t)", "setting": "[3]; Sprague-Dawley, plasma, ip, 80 mg/kg, i.p. 80 mg/kg, n = 6, mean ± SD, read-out: AUC(0–t)", "value": "12400 ± 5320", "unit": "ng·h/mL"}, {"measurement": "Tmax", "setting": "[3]; Sprague-Dawley, plasma, iv, 15 mg/kg, i.v. 15 mg/kg, n = 6, mean ± SD", "value": "0.17 ± 0.17", "unit": "h"}, {"measurement": "AUC(0-t)", "setting": "[3]; Sprague-Dawley, plasma, iv, 15 mg/kg, i.v. 15 mg/kg, n = 6, mean ± SD, read-out: AUC(0–24)", "value": "5410 ± 3220", "unit": "ng·h/mL"}, {"measurement": "AUC(0-t)", "setting": "[3]; Sprague-Dawley, plasma, iv, 15 mg/kg, i.v. 15 mg/kg, n = 6, mean ± SD, read-out: AUC(0–t)", "value": "4280 ± 2400", "unit": "ng·h/mL"}, {"measurement": "Tmax", "setting": "[3]; Sprague-Dawley, plasma, po, 60 mg/kg, i.g. 60 mg/kg, n = 6, mean ± SD", "value": 1.3, "unit": "h"}, {"measurement": "AUC(0-t)", "setting": "[3]; Sprague-Dawley, plasma, po, 60 mg/kg, i.g. 60 mg/kg, n = 6, mean ± SD, read-out: AUC(0–24)", "value": "13700 ± 7550", "unit": "ng·h/mL"}, {"measurement": "AUC(0-t)", "setting": "[3]; Sprague-Dawley, plasma, po, 60 mg/kg, i.g. 60 mg/kg, n = 6, mean ± SD, read-out: AUC(0–t)", "value": "10900 ± 4780", "unit": "ng·h/mL"}, {"measurement": "CL", "setting": "[3]; [5]", "value": "93.3 ± 49", "unit": "mL/min/kg"}, {"measurement": "V d (apparent volume of distribution)", "setting": "[3]; [5]", "value": "69.43 ± 22.58", "unit": "L/kg"}, {"measurement": "CL", "setting": "[3]; [6]", "value": "95.5 ± 33.8", "unit": "mL/min/kg"}, {"measurement": "V d (apparent volume of distribution)", "setting": "[3]; [6]", "value": "84.74 ± 57.17", "unit": "L/kg"}]}
